Test results reported in the CheMixHub ionic liquid set.

Experiment: xn = mol fraction of the nth substance listed

CCCC[n+]1ccn(C)c1.F[B-](F)(F)F + C1COCCO1
298.15 K, 100 kPa
Conditions	electrical conductivity [S/m]	viscosity [mPa·s]
x1 = 0.2559	0.403	6.011
x1 = 0.3956	0.395	12.17
x1 = 0.4988	0.34	19.88
x1 = 0.6	0.306	29.48
x1 = 0.7021	–	42.97
x1 = 0.8993	0.252	79.5
x1 = 1	0.243	104.7

CCCC[n+]1ccn(C)c1.F[B-](F)(F)F + C=CC(=O)OC
101 kPa, x1 = 1
Conditions	viscosity [mPa·s]
303.15 K	76.3
313.15 K	46.2

CCCC[n+]1ccn(C)c1.F[B-](F)(F)F + CC#N
Conditions	electrical conductivity [S/m]	viscosity [mPa·s]
298.15 K, 100 kPa, x1 = 0.1059	1.25	0.879
298.15 K, 100 kPa, x1 = 0.2213	1.16	2.027
298.15 K, 100 kPa, x1 = 0.3008	1.08	3.372
298.15 K, 100 kPa, x1 = 0.3894	0.782	5.548
298.15 K, 100 kPa, x1 = 0.4432	0.733	7.71
298.15 K, 100 kPa, x1 = 0.6178	0.509	18.74
298.15 K, 100 kPa, x1 = 0.7111	0.374	26.09
298.15 K, 100 kPa, x1 = 0.8146	0.338	41.69
298.15 K, 100 kPa, x1 = 0.9113	0.252	68.51
298.15 K, 100 kPa, x1 = 1	0.243	104.7
298.15 K, 101 kPa, x2 = 0	0.194	116
298.15 K, 101 kPa, x2 = 0.0956	0.278	80
298.15 K, 101 kPa, x2 = 0.2023	0.453	50.9
298.15 K, 101 kPa, x2 = 0.3174	0.672	31
298.15 K, 101 kPa, x2 = 0.4034	0.91	20.9
298.15 K, 101 kPa, x2 = 0.5137	1.34	11.9
298.15 K, 101 kPa, x2 = 0.6131	1.83	6.78
298.15 K, 101 kPa, x2 = 0.7085	2.48	3.78
298.15 K, 101 kPa, x2 = 0.8093	3.1	1.91
298.15 K, 101 kPa, x2 = 0.8631	3.21	1.32
298.15 K, 101.33 kPa, x2 = 0.3999	–	17.6
298.15 K, 101.33 kPa, x2 = 0.7988	–	1.79
298.15 K, 101.33 kPa, x2 = 0.8988	–	0.887
303.15 K, 101 kPa, x2 = 0	–	84.2
303.15 K, 101 kPa, x2 = 0.2034	–	35.6
313.15 K, 101 kPa, x2 = 0.4013	–	11.15
313.15 K, 101 kPa, x2 = 0.6018	–	4.33
323.15 K, 101 kPa, x2 = 0	–	35.5
323.15 K, 101 kPa, x2 = 0.3011	–	12.61
323.15 K, 101 kPa, x2 = 0.5	–	5.7
323.15 K, 101 kPa, x2 = 0.7997	–	1.221

CCCC[n+]1ccn(C)c1.O=C([O-])C(F)(F)F + CC#N
298.15 K, 101 kPa, x2 = 0.2556
Conditions	electrical conductivity [S/m]	viscosity [mPa·s]
–	0.84	24.6

CCC[N+]1(C)CCCC1.O=S(=O)([N-]S(=O)(=O)C(F)(F)F)C(F)(F)F + CC#N
electrical conductivity [S/m], 101 kPa, frequency 0.0005 MHz
Conditions	278.15 K	288.15 K	298.15 K	308.15 K	318.15 K	328.15 K
x1 = 0.03242	2.26	2.44	2.63	2.78	2.91	3.13
x1 = 0.09134	2.76	3.03	3.31	3.54	3.77	3.92
x1 = 0.2317	2.01	2.35	2.69	2.97	3.28	3.53

viscosity [mPa·s], 101 kPa
Conditions	278.15 K	288.15 K	298.15 K	308.15 K	318.15 K	328.15 K	338.15 K	348.15 K	358.15 K
x1 = 0.03242	0.649	0.581	0.516	0.46	0.405	–	–	–	–
x1 = 0.09134	1.145	0.993	0.877	0.797	0.706	0.621	–	–	–
x1 = 0.2317	3.57	2.91	2.44	2.079	1.798	1.592	–	–	–
x1 = 1	163.6	96.2	60.6	40.8	28.9	21.3	16.29	12.82	10.34

CCCC[n+]1ccn(C)c1.F[B-](F)(F)F + CC(=O)N(C)C
Conditions	electrical conductivity [S/m]	viscosity [mPa·s]
288.15 K, 100 kPa, x1 = 5.846e-05	0.003905	–
288.15 K, 100 kPa, x1 = 0.0006944	0.04135	–
293.15 K, 101 kPa, x1 = 0.7419	–	51.8
293.15 K, 101 kPa, x1 = 0.8488	–	74
293.15 K, 101 kPa, x1 = 0.9175	–	96
293.15 K, 101 kPa, x1 = 1	–	125
298.15 K, 100 kPa, x1 = 0.0002592	0.01885	–
298.15 K, 101 kPa, x1 = 0.7419	–	44.6
298.15 K, 101 kPa, x1 = 0.8488	–	63.1
298.15 K, 101 kPa, x1 = 0.9175	–	81
298.15 K, 101 kPa, x1 = 1	–	105
303.15 K, 101 kPa, x1 = 0.7419	–	36.7
303.15 K, 101 kPa, x1 = 0.8488	–	52.7
303.15 K, 101 kPa, x1 = 0.9175	–	67
303.15 K, 101 kPa, x1 = 1	–	88
308.15 K, 100 kPa, x1 = 5.846e-05	0.005095	–
308.15 K, 100 kPa, x1 = 0.0008703	0.06575	–
308.15 K, 100 kPa, x1 = 0.001047	0.07765	–
308.15 K, 101 kPa, x1 = 0.7419	–	29.6
308.15 K, 101 kPa, x1 = 0.8488	–	43.4
308.15 K, 101 kPa, x1 = 0.9175	–	54.9
308.15 K, 101 kPa, x1 = 1	–	72
313.15 K, 101 kPa, x1 = 0.7419	–	22.6
313.15 K, 101 kPa, x1 = 0.8488	–	33.5
313.15 K, 101 kPa, x1 = 0.9175	–	42.9
313.15 K, 101 kPa, x1 = 1	–	57.7
313.15 K, 101 kPa, x2 = 0.5002	–	9.57
313.15 K, 101 kPa, x2 = 0.8999	–	1.434
318.15 K, 101 kPa, x1 = 0.7419	–	16.2
318.15 K, 101 kPa, x1 = 0.8488	–	24.3
318.15 K, 101 kPa, x1 = 0.9175	–	31.8
318.15 K, 101 kPa, x1 = 1	–	44
323.15 K, 101 kPa, x1 = 0.7419	–	9.8
323.15 K, 101 kPa, x1 = 0.8488	–	16.2
323.15 K, 101 kPa, x1 = 0.9175	–	22.3
323.15 K, 101 kPa, x1 = 1	–	31.6
323.15 K, 101 kPa, x2 = 0.5998	–	5.02
323.15 K, 101 kPa, x2 = 0.6996	–	3.3
323.15 K, 101 kPa, x2 = 0.8999	–	1.253
333.15 K, 101 kPa, x2 = 0.8002	–	1.77
